Consider 68 compounds from US10278942B2 (PELOTON THERAPEUTICS, INC., priority 2015, dated 2019).

Each structure is given as a SMILES string.

Broadly, the IC50 is the concentration at which inhibition is half-maximal. The EC50 is the concentration that produces a half-maximal response.

The target in the first assay is T1, HIF-2α HIS TAG-PASB Domain (Homo sapiens, UniProt Q99814).
T1 construct: 100 nM HIF-2α HIS TAG-PASB Domain
T1 sequence (Q99814 240-350 limits assumed): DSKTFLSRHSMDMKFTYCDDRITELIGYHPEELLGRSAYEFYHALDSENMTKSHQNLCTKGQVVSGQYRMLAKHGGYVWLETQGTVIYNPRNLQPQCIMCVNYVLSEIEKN
Put plainly: HIF-2α Scintillation Proximity Assay (SPA). The following applies: Scintillation Proximity Assay IC50 (nM). It counts as binding. The method in brief:
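IC50 values rest on percent inhibition, where the sample signal is scaled between high and low controls. Wells contain about 100 μL: compound dispensed as 2 μL of DMSO solution, 88 μL protein-probe mix and 10 μL of beads.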
In turn, `N#Cc1cncc(Oc2ccc3c(c2C(F)F)C(O)C(F)(F)S3(=O)=O)c1` (centres unmarked) [Compound 383] had an IC50 of 50 to 249 nM.

Regarding `O=S1(=O)CCC(O)c2c1ccc(Oc1cc(F)cc(F)c1)c2C(F)F` (centres unmarked) [Compound 402], the IC50 was > 1000 nM.

As to `N#Cc1cc(S(=O)(=O)C(F)(F)F)ccc1Oc1cc(F)cc(Cl)c1` [Compound 119], the IC50 was in the range of 50 to 249 nM. In the case of `O=S1(=O)c2ccc(Oc3cc(F)cc(Cl)c3)c(C(F)F)c2C(O)C1(F)F` (centres unmarked) [Compound 364], the IC50 is < 50 nM.

Staying with this assay, now noted: read-out: Scintillation Proximity Assay IC50.
On to `Nc1ncccc1-c1ccc(S(=O)(=O)C(F)(F)F)c2c1CC(F)(F)[C@H]2O` [Compound 539], for which the IC50 was > 1000 nM. Turning to `CS(=O)(=O)c1ccc(O[C@H]2C[C@@H](C(N)=O)C2)c2c1[C@H](O)C(F)(F)[C@@H]2F` [Compound 763], the IC50 was > 1000 nM.

With `O=S(=O)(c1ccc(OC2CNC2)c2c1[C@H](O)C(F)(F)C2)C(F)(F)F` [Compound 792], the IC50 is > 1000 nM.

As to `CS(=O)(=O)c1ccc(N2CCC[C@H](O)C2)c2c1[C@H](O)C(F)(F)[C@@H]2F` [Compound 484, (S)-1-((1S,3R)-2,2,3-trifluoro-1-hydroxy-7-(methylsulfonyl)-2,3-dihydro-1H-inden-4-yl)piperidin-3-ol], the IC50 is > 1000 nM. On to `O=S(=O)(c1ccc(Oc2cccn3ccnc23)c2c1C(O)C(F)(F)C2)C(F)(F)F` (centres unmarked) [Compound 246], for which the IC50 is > 1000 nM. Same read-out and setting: to `COc1ccc(S(C)(=O)=O)c2c1CCC2O` (centres unmarked) [Compound 776] belongs > 1000 nM.

`NC(=O)Cc1ccc(S(=O)(=O)C(F)(F)F)c2c1CC[C@H]2O` [Compound 525]: the IC50 is > 1000 nM. Same read-out and setting: to `NC(=O)Cc1ccc(S(=O)(=O)C(F)(F)F)c2c1CC(F)(F)C2O` (centres unmarked) [Compound 526] belongs > 1000 nM; to `CC1(O)c2c(S(=O)(=O)C(F)F)ccc(Oc3cc(F)cc(C#N)c3)c2CC1(F)F` (centres unmarked) [Compound 13], > 1000 nM.

On to `C[C@]1(F)Cc2c(Oc3cc(F)cc(C#N)c3)ccc(S(C)(=O)=O)c2[C@@H]1O` [Compound 298], for which the IC50 was > 1000 nM. Regarding `CS(=O)(=O)N1CCC(Oc2ccc(S(=O)(=O)C(F)(F)F)c3c2CC(F)(F)C3O)C1` (centres unmarked) [Compound 630], the IC50 was > 1000 nM.

Turning to `O=S(=O)(c1ccc(Oc2ccc(F)cc2F)c(Br)c1)C(F)(F)F` [Compound 175], the IC50 is > 1000 nM. Still for that read-out and setting: the same measure for `N#Cc1cc(Oc2ccc(S(=O)(=O)C(F)F)c3c2CC(F)(F)C3=O)ccc1F` [Compound 199]: > 1000 nM. As to `COC(C)COc1ccc(S(=O)(=O)C(F)(F)F)c2c1CCC2O` (centres unmarked) [Compound 625], the IC50 is > 1000 nM. Consider `N#Cc1c(Oc2cc(F)cc(Cl)c2)ccc(S(=O)(=O)C(F)(F)F)c1C(=O)O` [Compound 105], for which the IC50 was > 1000 nM. `CS(=O)(=O)N=S(=O)(CF)c1ccc(Oc2cc(F)cc(C#N)c2)c2c1[C@H](O)C(F)(F)C2` (some centres unmarked) [Compound 284]: the IC50 was > 1000 nM.

Consider `OC1c2cccc(OCC(F)F)c2CC1(F)F` (centres unmarked) [Compound 651], for which the IC50 is > 1000 nM. Same read-out and setting: the same measure for `N#CCS(=O)(=O)c1ccc(Oc2cc(F)cc(F)c2)c2c1C(O)CC2` (centres unmarked) [Compound 14]: > 1000 nM; for `CC(Oc1ccc(S(=O)(=O)C(F)(F)F)c2c1CC(F)(F)C2O)c1ccccc1` (centres unmarked) [Compound 664]: > 1000 nM; for `O=C1c2c(ccc(Oc3cc(F)cc(Cl)c3)c2Br)S(=O)(=O)C1(F)F` [Compound 354]: > 1000 nM. Regarding `CN=S(=O)(c1ccc(Oc2cc(F)cc(Cl)c2)c(Br)c1)C(F)F` (centres unmarked) [Compound 70], the IC50 lay in the range of 250 to 1000 nM.

For `Cc1c([S+]([O-])C(F)F)ccc(Oc2cc(F)cc(Cl)c2)c1C#N` (centres unmarked) [Compound 37], the IC50 was > 1000 nM.

For `O=S(=O)(c1ccc(Sc2cc(F)cc(Cl)c2)c2c1[C@H](O)CC2)C(F)F` [Compound 493, (R)-4-((3-chloro-5-fluorophenyl)thio)-7-((difluoromethyl)sulfonyl)-2,3-dihydro-1H-inden-1-ol], the IC50 was > 1000 nM. Same read-out and setting: to `N#Cc1c(S(=O)(=O)C(F)F)ccc(Oc2cc(F)cc(Cl)c2)c1Br` [Compound 76] belongs 250 to 1000 nM; to `O=S(=O)(c1ccc(Oc2cc(F)cc(Cl)c2)c(Cl)c1CNCC(F)(F)F)C(F)F` [Compound 47], > 1000 nM; to `N#Cc1cc(Oc2ccc(S(=O)(=O)C(F)(F)F)c3c2CCC3O)ccc1F` (centres unmarked) [Compound 216], > 1000 nM. Take `N#Cc1cc(F)cc(Oc2ccc3c(c2C(F)F)[C@H](N)C(F)(F)S3(=O)=O)c1` [Compound 384]: the IC50 was > 1000 nM. On the same count and under the same terms, the same measure for `CS(=O)(=NC#N)c1ccc(Oc2cc(F)cc(F)c2)c2c1C(O)CC2` (centres unmarked) [Compound 189]: > 1000 nM; for `CC(=O)N1CCC(Oc2ccc(S(=O)(=O)C(F)(F)F)c3c2CC(F)(F)C3O)C1` (centres unmarked) [Compound 629]: > 1000 nM; for `N#Cc1cncc(Oc2ccc(S(N)(=O)=O)c3c2[C@@H](F)C(F)(F)[C@H]3O)c1` [Compound 340]: < 50 nM. On to `CC(=O)N1CCCC(Oc2ccc(S(=O)(=O)C(F)(F)F)c3c2CC(F)(F)C3O)C1` (centres unmarked) [Compound 627], for which the IC50 is > 1000 nM. In the case of `NCCOc1ccc(S(=O)(=O)C(F)(F)F)c2c1CC(F)(F)C2O` (centres unmarked) [Compound 635], the IC50 is > 1000 nM.

As to `N#Cc1ccc(OCC(F)F)c2c1[C@H](O)C(F)(F)C2` [Compound 688], the IC50 is > 1000 nM.

Consider `O=C(O)COc1ccc(S(=O)(=O)C(F)(F)F)c2c1CC(F)(F)C2O` (centres unmarked) [Compound 633], for which the IC50 was > 1000 nM. Regarding `CC1(COc2ccc(S(=O)(=O)C(F)(F)F)c3c2CCC3O)COC1` (centres unmarked) [Compound 621], the IC50 is > 1000 nM. As to `N#Cc1c(Oc2cc(F)cc(Cl)c2)ccc(S(=O)(=O)C(F)(F)F)c1Cl` [Compound 28], the IC50 was > 1000 nM. For `CS(=O)(=O)c1ccc(Oc2cncc(Br)c2)c2c1[C@H](O)[C@H](F)[C@@H]2F` [Compound 328], the IC50 is < 50 nM. Same read-out and setting: the same measure for `Cc1c(Oc2cc(F)cc(C#N)c2)ccc(S(=O)(=O)C(F)(F)F)c1/C=C/C(=O)NCc1ccccc1` [Compound 149]: > 1000 nM. Same read-out and setting: to `CC(=O)c1c(S(=O)(=O)C(F)(F)F)ccc(Oc2cc(F)cc(C#N)c2)c1C#N` [Compound 79] belongs > 1000 nM; to `NC(=O)COc1ccc(S(=O)(=O)C(F)(F)F)c2c1CC(F)(F)C2O` (centres unmarked) [Compound 640], > 1000 nM; to `N#CN=S(=O)(c1ccc(Oc2cc(F)cc(C#N)c2)c2c1[C@H](O)[C@H](F)C2)C(F)F` (some centres unmarked) [Compound 297], > 1000 nM. Consider `O=S1(=O)C[C@H](O)c2c1ccc(Oc1cc(F)cc(F)c1)c2Br` [Compound 413], for which the IC50 was > 1000 nM. Still for that read-out and setting: the same measure for `CCc1ccc(S(=O)(=O)C(F)(F)F)c2c1CCC2O` (centres unmarked) [Compound 514]: > 1000 nM. Regarding `O=S(=O)(c1ccc(OC2CCc3ncccc32)c2c1[C@H](O)C(F)(F)C2)C(F)(F)F` (some centres unmarked) [Compound 733], the IC50 was > 1000 nM. Still for that read-out and setting: to `C=CS(=O)(=O)c1ccc(Oc2cc(F)cc(Cl)c2)c(Br)c1` [Compound 130] belongs > 1000 nM.

In the case of `CS(=O)(=O)c1ccc(OC2CC2)c2c1[C@H](O)C(F)(F)[C@@H]2F` [Compound 773], the IC50 was > 1000 nM. As to `CS(=O)(=O)c1ccc(Nc2cncc(Cl)c2)c2c1C(O)C(F)(F)C2` (centres unmarked) [Compound 500], the IC50 is > 1000 nM.

With `O=S(=O)(c1ccc(NC2CCOCC2)c2c1[C@H](O)CC2)C(F)F` [Compound 494, (1R)-7-(difluoromethylsulfonyl)-4-(tetrahydropyran-4-ylamino)indan-1-ol], the IC50 was > 1000 nM. The same measure, in the same setting: to `NC(=O)C1CCc2c(OCC(F)F)ccc(C(=O)O)c21` (centres unmarked) [Compound 693] belongs > 1000 nM; to `CS(=O)(=O)c1ccc(Nc2ccc(F)cc2)c2c1C(O)C(F)(F)C2` (centres unmarked) [Compound 501], > 1000 nM. Same read-out and setting: to `C=CCC1(O)c2c(S(=O)(=O)C(F)F)ccc(Oc3cc(F)cc(F)c3)c2CC1(F)F` (centres unmarked) [Compound 12] belongs > 1000 nM; to `CS(=O)(=O)c1ccc(Oc2cc(F)cc(C#N)c2)c2c1C(O)CCC2` (centres unmarked) [Compound 95], > 1000 nM. For the compound `O=S(=O)(c1ccc(Nc2cncc(Cl)c2)c2c1C(O)CC2)C(F)(F)F` (centres unmarked) [Compound 503], the IC50 is > 1000 nM. Regarding `Nc1ccc(Cl)cc1-c1ccc(S(=O)(=O)C(F)(F)F)c2c1CC(F)(F)[C@H]2O` [Compound 540], the IC50 was > 1000 nM.

The next assay has as its system 786-O-Hif-Luc cells. The experiment in a line: Luciferase Assay (HIF responsive elements reporter). The conditions noted are these: read-out: Mean Luciferase EC50 (nM).
Method: A pool of infected cells were then selected against 2 μg/mL of puromycin (P8833, Sigma) for 10 days followed by limited dilution to select single clones. […] Each concentration was tested in triplicate. After about 24 hours, luciferase activity was determined using ONE-Glo Luciferase Assay Reagent (E6110, Promega) following the manufacturer's recommended procedure. EC50 were calculated using Dotmatics software.
For the compound `[2H][C@]1(O)c2c(S(C)(=O)=O)ccc(Oc3cc(F)cc(C#N)c3)c2CC1(F)F` [Compound 247], the EC50 is < 50 nM. Take `N#Cc1cc(F)cc(Oc2ccc(S(N)(=O)=O)c3c2[C@H](F)C(F)(F)[C@H]3O)c1` [Compound 339]: the EC50 is 250 to 1000 nM. On to `CS(=O)(=O)c1ccc(Oc2cc(F)cc(C#N)c2)c2c1[C@H](O)[C@H](F)[C@@H]2F` [Compound 289, 3-[(1S,2S,3R)-2,3-difluoro-1-hydroxy-7-methylsulfonyl-indan-4-yl]oxy-5-fluoro-benzonitrile], for which the EC50 is < 50 nM. Same read-out and setting: the same measure for `N#Cc1cncc(Oc2ccc(S(=O)(=O)C(F)(F)F)c3c2CC(F)(F)[C@H]3O)c1` [Compound 235]: < 50 nM; for `N#Cc1cc(F)cc(Oc2ccc(S(=O)(=O)C(F)(F)F)c3c2CC(F)(F)[C@H]3N)c1` [Compound 290]: 50 to 249 nM.

Still in this assay, the particulars now being: read-out: Mean Luciferase EC50 (nM), 786-O-Hif-Luc cells.
`Cn1cc(Oc2ccc(S(=O)(=O)C(F)(F)F)c3c2CC(F)(F)[C@H]3O)cn1` [Compound 224]: the EC50 is 50 to 249 nM. Same read-out and setting: to `N#Cc1cc(F)cc(Oc2ccc(S(=O)(=O)C(F)F)c3c2CC(F)(F)[C@@H]3O)c1` [Compound 237] belongs 50 to 249 nM. On the same count and under the same terms, the same measure for `O=S(=O)(c1ccc(Oc2cncc(Cl)c2)c2c1[C@H](O)C(F)(F)C2)C(F)F` [Compound 25]: < 50 nM; for `Cc1c(S(C)(=O)=O)ccc(Oc2cc(F)cc(Cl)c2)c1C#N` [Compound 50]: > 1000 nM; for `N#Cc1cc(F)cc(Oc2ccc(S(=O)(=O)CCl)c3c2CC(F)(F)[C@H]3O)c1` [Compound 215]: < 50 nM.
